The subject of data set [1] is mice. As to conditions: cited from earlier work.
For the next data set, the system named is rats. The conditions noted are these: 10× higher doses than the human equivalent dose proposed for clinical trials; cited from earlier work.
Data set [2] concerns mice. As to conditions: 10× higher doses than the human equivalent dose proposed for clinical trials; cited from earlier work.
The next data set concerns dogs. As to conditions: 10× higher doses than the human equivalent dose proposed for clinical trials; cited from earlier work.
Data set [3] deals with PBMCs. The data set is described as follows: Cytokine production by morpholinofructose-stimulated PBMCs from two donors. It counts as cell-based, human. The protocol:
For FIGS. 2 through 7, cells from two donors were used, each in a separate independent study. Cytokines secreted in the media by the cells were measured at 2, 4, 6, 24 and 48 hours.
In the following examples cells were stimulated known cytokine stimulants, either lipopolysaccharide (“LPS”) or morpholino fructose. […] Varying levels of meglumine, or a salt thereof were then administered to the stimulated cells and the resulting cytokine levels measured.
Peripheral blood mononuclear cells (“PBMC”s) from two donors were used to measure cytokine levels in response to various inputs. For each donor, one group of PBMCs were untreated. One group was allowed to remain in cell culture. A different group was treated with 40 mM meglumine. Another group was treated with morpholinofructose at 40 mM concentration. Three remaining groups were treated with morpholinofructose at 40 mM concentration and meglumine at concentration of 20 mM, 40 mM, and 80 mM. The groups were allowed to incubate for up to 50 hours. Cytokines secreted in the media by the cells were measured at 2, 4, 6, 24 and 48 hours The percentage of cells positive for IL-6 was determined by flow cytometry.
The same protocol was used to measure the addition of meglumine to reduce the levels of TNF-α (FIGS. 3A and 3B), MIP-1α (FIGS. 4A and 4B), MCP-1(FIGS. 5A and 5B), and MCP-1 ((FIGS. 6A and 6B).

The subject of data set [4] is PBMCs. As to the kind of experiment: LPS-stimulated cytokine-positive PBMCs, flow cytometry. It counts as cell-based, human. As to conditions: 4 hours. The method, then:
Lipopolysaccharide (LPS) at […] concentration was used as a positive control for cytokine production in PBMCs. Meglumine was added at 40 mM and the cells allowed to incubate for 4 hours before sorting. […] (p<0.05 vs unstimulated and p<0.05 vs LPS). FIG. 8. The same protocol was sued to measure IL-1α production. […] FIG. 9.
(In general: A flow cytometer gives signals particle by particle.)

A further data set deals with THP-1 cells. As to the kind of experiment: LPS-induced cytokine secretion by THP-1 cells. The conditions noted are these: LPS 25 ng/ml, 24 hours. It is filed as cell-based, human. The method, then: THP-1 cells (a human monocytic cell line derived from an acute monocytic leukemia patient) were cultured to 80% confluence. The THP-1 cells were then treated with LPS at 25 ng/ml to induce cytokine secretion. Cells were treated with either various concentration of meglumine. Tissue culture media was harvested at 24 hours and the levels of cytokines were determined.

`COc1cc2nc(N3CCN(C(=O)c4ccco4)CC3)nc(N)c2cc1OC` [Prazosin, prazosin]: the “catecholamines and cytokine responses” value in the data set on mice [1] is “reduces”. The survival entry in the data set with mice [1] (following various hyper-inflammatory stimuli) is “markedly increased survival”.
Consider `CNC[C@H](O)[C@@H](O)[C@H](O)[C@H](O)CO.Cl` [meglumine HCl], for which the safety result in the data set on rats, in the data set on mice [2] and with dogs was “safe” each time.
As to `CNC[C@H](O)[C@@H](O)[C@H](O)[C@H](O)CO` [meglumine, (2R,3R,4R,5S)-6-(Methylamino)hexane-1,2,3,4,5-pentol], the “IL-6 levels in the PBMCs” value with PBMCs [3] (40 mM morpholinofructose plus meglumine 20, 40, 80 mM, measured at 2, 4, 6, 24 and 48 hours) is recorded as “reduced the IL-6 levels”. In the data set on PBMCs [3] (40 mM morpholinofructose plus various concentrations of meglumine, FIGS. 3A, 3B), the TNF-α production entry is recorded as “decreased”. Besides, in the data set with PBMCs [3] (40 mM morpholinofructose plus various concentrations of meglumine, FIGS. 4A, 4B), the “MIP 1α production” value is “decreased”. Besides, the “MCP 1 production” value with PBMCs [3] (40 mM morpholinofructose plus various concentrations of meglumine, FIGS. 5A, 5B) is given as “decreased”. Further, the IL-10 production result with PBMCs [3] (40 mM morpholinofructose plus various concentrations of meglumine, FIGS. 6A, 6B) is “decreased”. In addition, the “LPS-stimulated increase in the percentage of IL-6 positive PBMCs” value in the data set with PBMCs [4] (LPS 40 mM, meglumine 40 mM, p<0.05 vs unstimulated and vs LPS, FIG. 8) is recorded as “significantly reduced”. Besides, the “percentage of PBMCs expressing IL-1α” value in the data set with PBMCs [4] (combination of LPS and meglumine 40 mM, FIG. 9) is “significantly increased”. The “lowest concentration at which cytokine reduction was exhibited” value with THP-1 cells was 10 mm. Besides, in the data set on THP-1 cells (meglumine at high concentrations, FIG. 11), the “secretion of IL-8” value is reported as “ability to interfere with the secretion”. Further, the “secretion of MIP-1α” value in the data set with THP-1 cells (meglumine at high concentrations, FIG. 13) is on record as “ability to interfere with the secretion”. The “secretion of MIP-1β” value with THP-1 cells (meglumine at high concentrations, FIG. 14) is given as “ability to interfere with the secretion”. Also, the “secretion of VEGF” value with THP-1 cells (meglumine at high concentrations, FIG. 15) is given as “ability to interfere with the secretion”.
As for `O=C(CN1CCOCC1)[C@@H](O)[C@H](O)[C@H](O)CO` [morpholinofructose, reference compound], the “IL-6 production versus control cells” value in the data set on PBMCs [3] (human PBMCs incubated with 40 mM morpholinofructose, FIG. 7) is listed as “significantly more IL-6 than control cells”.

Values taken from patent publication US20230172878A1, “COMPOSITIONS AND METHODS FOR TREATING CYTOKINE STORMS” (priority 2020, published 2023).
